Data: ChEMBL document CHEMBL5038592, “Discovery of MK-8153, a Potent and Selective ROMK Inhibitor and Novel Diuretic/Natriuretic” (J Med Chem, 2021)

Assays:
[1] = target: T1, ATP-sensitive inward rectifier potassium channel 1 (Homo sapiens, UniProt P48048); assay: Inhibition of human ROMK expressed in CHO cells by whole cell voltage clamp electrophysiology assay; assay type: cell-based
T1 sequence (P48048 whole entry): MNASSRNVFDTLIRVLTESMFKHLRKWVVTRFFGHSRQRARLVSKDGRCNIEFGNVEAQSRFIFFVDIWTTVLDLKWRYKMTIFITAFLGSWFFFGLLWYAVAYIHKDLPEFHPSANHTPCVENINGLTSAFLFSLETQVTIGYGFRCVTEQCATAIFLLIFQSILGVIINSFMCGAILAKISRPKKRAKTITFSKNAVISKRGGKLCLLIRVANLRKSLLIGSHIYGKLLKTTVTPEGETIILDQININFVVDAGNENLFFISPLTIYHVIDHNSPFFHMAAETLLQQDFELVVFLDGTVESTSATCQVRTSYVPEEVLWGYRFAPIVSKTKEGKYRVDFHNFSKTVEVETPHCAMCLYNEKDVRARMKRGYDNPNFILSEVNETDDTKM

[2] = Apparent permeability in pig LLC-PK1 cells
[3] = target: Voltage-gated inwardly rectifying potassium channel KCNH2 (Homo sapiens, UniProt Q12809); assay: Inhibition of human ERG expressed in HEK-293 cells by voltage clamp electrophysiology assay
Sequence of Voltage-gated inwardly rectifying potassium channel KCNH2 (Q12809 whole entry): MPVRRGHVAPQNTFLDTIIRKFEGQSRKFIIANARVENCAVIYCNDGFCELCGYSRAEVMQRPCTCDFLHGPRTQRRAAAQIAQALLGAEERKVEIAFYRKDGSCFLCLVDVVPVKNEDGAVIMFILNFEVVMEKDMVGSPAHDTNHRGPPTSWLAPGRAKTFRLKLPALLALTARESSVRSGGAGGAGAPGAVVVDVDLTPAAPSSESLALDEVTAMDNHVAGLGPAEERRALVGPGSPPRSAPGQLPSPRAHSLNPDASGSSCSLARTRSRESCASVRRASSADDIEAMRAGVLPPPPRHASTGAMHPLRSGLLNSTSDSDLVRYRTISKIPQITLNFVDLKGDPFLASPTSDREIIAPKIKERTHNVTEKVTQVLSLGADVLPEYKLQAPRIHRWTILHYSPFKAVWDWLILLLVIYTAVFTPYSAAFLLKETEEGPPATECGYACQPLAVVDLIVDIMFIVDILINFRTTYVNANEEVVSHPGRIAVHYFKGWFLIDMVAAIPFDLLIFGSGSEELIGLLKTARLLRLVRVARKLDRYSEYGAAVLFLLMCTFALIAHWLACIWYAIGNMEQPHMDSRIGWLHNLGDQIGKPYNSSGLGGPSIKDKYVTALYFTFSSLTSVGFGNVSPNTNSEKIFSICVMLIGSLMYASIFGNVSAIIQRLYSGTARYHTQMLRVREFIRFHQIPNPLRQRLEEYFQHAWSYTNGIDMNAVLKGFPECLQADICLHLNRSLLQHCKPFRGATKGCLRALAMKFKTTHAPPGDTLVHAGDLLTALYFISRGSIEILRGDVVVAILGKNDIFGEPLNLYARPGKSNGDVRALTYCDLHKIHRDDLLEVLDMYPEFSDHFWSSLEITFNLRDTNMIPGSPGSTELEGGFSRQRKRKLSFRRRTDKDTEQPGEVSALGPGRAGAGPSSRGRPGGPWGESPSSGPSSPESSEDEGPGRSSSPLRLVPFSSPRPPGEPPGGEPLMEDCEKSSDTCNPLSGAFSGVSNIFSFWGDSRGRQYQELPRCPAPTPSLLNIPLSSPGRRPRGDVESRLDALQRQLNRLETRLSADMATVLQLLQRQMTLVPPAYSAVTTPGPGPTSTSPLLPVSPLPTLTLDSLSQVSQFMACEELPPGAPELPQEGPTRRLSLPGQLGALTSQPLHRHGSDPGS

Homo sapiens = species: Homo sapiens; assay: Selectivity index, ratio of IC50 for human ERG to IC50 for human ROMK

| Structure (SMILES) | IC50 [1] [nM] | Papp [2] [×10⁻⁶ cm/s] | IC50 [3] [nM] | Ratio (Homo sapiens) |
| --- | --- | --- | --- | --- |
| Cc1c([C@@H](O)CN2CCC3(CC2)CCN(C2=CC(=O)CC2)C3=O)ccc2c1COC2=O | 11 |  |  |  |
| Cc1c([C@@H](O)CN2CCC3(CC2)CCN(C2=CC(=O)OC2)C3=O)ccc2c1COC2=O |  | 11 |  |  |
| CC1=C(N2CCC3(CCN(C[C@H](O)c4ccc5c(c4C)COC5=O)CC3)C2=O)C(C)OC1=O (some centres not stated) | 98 | 20 | 20000 |  |
| CC1=C(N2C(=O)C3(CCN(C[C@H](O)c4ccc5c(c4C)COC5=O)CC3)CC2C)COC1=O (some centres not stated) | 18 | 18 | 18000 |  |
| Cc1c([C@@H](O)CN2CCN(C[C@H](O)c3ccc4c(c3C)COC4=O)CC2)ccc2c1COC2=O [MK-7145] |  | 20 | 22000 |  |
| CCC1=C(N2CCC3(CCN(C[C@H](O)c4ccc5c(c4C)COC5=O)CC3)C2=O)COC1=O | 18 | 23 |  |  |
| Cc1c([C@@H](O)CN2CCC3(CC2)CCN(C2=CC(=O)OC2C)C3=O)ccc2c1COC2=O (some centres not stated) | 24 | 19 | 19000 |  |
| Cc1c([C@@H](O)CN2CCC3(CC2)CC(=O)N(C2=CC(=O)OC2)C3)ccc2c1COC2=O | 45 | 7.9 | 90000 | 2000 |
| CC1=C(N2CCC3(CCN(C[C@H](O)c4ccc5c(c4C)COC5=O)CC3)C2=O)CCC1=O | 15 | 22 |  |  |
| Cc1c([C@@H](O)CN2CCC3(CC2)CCN(C2=CC(=O)OC2)C3)ccc2c1COC2=O | 26 | 27 | 90000 | 3400 |
| Cc1c([C@@H](O)CN2CCC3(CC2)CCN(C2=C(Cl)C(=O)OC2)C3=O)ccc2c1COC2=O | 6 | 33 |  |  |
